Values quoted from earlier work as cited in US9662315B2, “Ameliorating drug-induced elevations in blood pressure by adjunctive use of antihypertensive drugs” (Kitov Pharmaceuticals Ltd., priority 2008, dated 2017).

Settings: per FDA approved drug labeling; rofecoxib compared with placebo control patients

Compound	high blood pressure / hypertension rate in treated patients
CS(=O)(=O)c1ccc(C2=C(c3ccccc3)C(=O)OC2)cc1 [rofecoxib]	occurring more frequently
Cc1ccc(-c2cc(C(F)(F)F)nn2-c2ccc(S(N)(=O)=O)cc2)cc1 [celecoxib]	increased rate of hypertension
